Results from patent publication US12012467B2, “Small molecule DCN1 inhibitors and therapeutic methods using the same” (THE REGENTS OF THE UNIVERSITY OF MICHIGAN, priority 2017, dated 2024).

What follows are compounds tested against DCN1 (Homo sapiens (Human), UniProt Q96GG9) (assay: Competitive FP binding assay). Details: bounds given in μM; read-out: Binding affinity to DCN1 (IC50).
Experimental: Competitive FP Binding Assay
The Fluorescence Polarization (FP) competitive binding assays were performed to accurately determine the binding affinities of our DCN1 inhibitors. […] Serial dilutions of proteins were mixed with 46 to a final volume of 200 μl in the assay buffer (100 mM phosphate buffer, pH=6.5, with 0.02% Tween-20 and 2% DMSO). Final probe concentration was 5 nM for both assays. Plates were incubated at room temperature for 30 minutes with gentle shaking to assure equilibrium.
Pure proteins were derived from the same expression and purification protocols. Plasmids were transformed into Rosetta2 cells, the cells were grown in Terrific Broth at 37° C. to an O.D.600>1.0 and induced with 0.4 mM Isopropyl (3-D-1-thiogalactopyranoside overnight at 20° C. The pelleted cells were resuspended in lysis buffer containing 25 mM Tris-HCl, pH 7.5, 200 mM NaCl and protease inhibitors, sonicated and centrifuged at 34,000×g for 45 minutes to remove debris. Cleared lysate was incubated with Ni-NTA resin (Qiagen) prewashed with lysis buffer, for 1 hr at 4° C. The matrix was loaded into a column then washed with 25 mM Tris-HCl, pH 7.5, 200 mM NaCl and 10 mM imidazole. Protein was eluted with 25 mM Tris-HCl, pH 7.5, 200 mM NaCl and 300 mM imidazole, concentrated and applied to a Superdex 75 (GE Healthcare) column pre-equilibrated with 25 mM Tris pH 7.5, 200 mM NaCl and 1 mM DTT. For DCN2-5, the N-terminal His6 tag was removed prior to gel filtration. Tag removal was achieved through incubation with TEV protease during overnight dialysis against 25 mM Tris pH 7.5, 200 mM NaCl and 1 mM DTT and a second Ni-NTA column. DCN2-5 proteins were stored at −80° C. in 1 mg/mL fractions containing 5% glycerol. The uncleaved DCN1 protein was stored at −80° C. without glycerol.

DCN1, sequence (Q96GG9 58-259): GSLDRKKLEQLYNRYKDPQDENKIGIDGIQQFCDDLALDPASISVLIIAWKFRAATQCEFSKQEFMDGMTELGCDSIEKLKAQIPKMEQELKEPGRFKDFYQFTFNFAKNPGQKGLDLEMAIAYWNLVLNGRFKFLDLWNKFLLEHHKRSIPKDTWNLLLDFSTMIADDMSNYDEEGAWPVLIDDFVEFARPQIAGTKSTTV

`CC[C@H](C)[C@@H](CN)NC(=O)[C@H](Cc1nc2ccc(C(C)C)cc2s1)NC=O` [Example 48, (S)—N-((2S,3S)-1-amino-3-methylpentan-2-yl)-2-formamido-3-(6-isopropylbenzo[d]thiazol-2-yl)propanamide] and `CC[C@H](C)[C@@H](CN)NC(=O)[C@@H](N)Cc1nc2ccc(C(C)C)cc2s1` [Example 49, (S)-2-amino-N-((2S,3S)-1-amino-3-methylpentan-2-yl)-3-(6-isopropylbenzo[d]thiazol-2-yl)propanamide] cannot be ordered by IC50: > 5 µM for the first, > 10 µM for the second.

`CCC(=O)N[C@@H](Cc1nc2ccc(C(C)C)cc2s1)C(=O)NCCN` [Example 53, (S)—N-(2-aminoethyl)-3-(6-isopropylbenzo[d]thiazol-2-yl)-2-propionamidopropanamide] and `CCC(=O)N[C@@H](Cc1nc2ccc(C(C)C)cc2s1)C(=O)N[C@@H](C)CN` [Example 54, (S)—N—((S)-1-aminopropan-2-yl)-3-(6-isopropylbenzo[d]thiazol-2-yl)-2-propionamidopropanamide] cannot be ordered by IC50: > 10 µM for the first, > 10 µM for the second.

`CCC(=O)N[C@@H](Cc1nc2ccc(C(C)C)cc2s1)C(=O)N[C@@H](CN)Cc1ccccc1` [Example 90] and `CC(C)C(=O)N[C@@H](Cc1nc2ccc(C(C)C)cc2s1)C(=O)NCCN` [Example 95] cannot be ordered by IC50: > 5 µM for the first, > 10 µM for the second.

For `CC(C)c1ccc2nc(C[C@H](NC(=O)C3CC3)C(=O)NCCN)sc2c1` [Example 96], the IC50 was > 10 µM.

Same assay, conditions: read-out: Binding affinity to DCN1 (IC50 (nM))

Point of comparison: `CCC(=O)N[C@@H](Cc1nc2ccc(C(C)C)cc2s1)C(=O)N[C@H](CN)Cc1ccccc1` [Example 55, (S)—N—((S)-1-amino-3-phenylpropan-2-yl)-3-(6-isopropylbenzo[d]thiazol-2-yl)-2-propionamidopropanamide], IC50 0.179 µM. Against it:
- CC[C@H](C)[C@@H](CN)NC(=O)[C@H](Cc1nc2ccc(C(C)C)cc2s1)NC(C)=O [Example 46, (S)-2-acetamido-N-((2S,3S)-1-amino-3-methylpentan-2-yl)-3-(6-isopropylbenzo[d]thiazol-2-yl)propanamide] — 1.6-fold higher, 0.281 ± 0.029 µM
- CCC(=O)N[C@@H](Cc1nc2ccc(C(C)C)cc2s1)C(=O)N[C@H](CN)[C@@H](C)CC [Example 47, (S)—N-((2S,3S)-1-amino-3-methylpentan-2-yl)-3-(6-isopropylbenzo[d]thiazol-2-yl)-2-propionamidopropanamide] — 1.9-fold lower, 0.095 ± 0.0158 µM
- CC[C@H](C)[C@@H](CN)NC(=O)[C@H](Cc1nc2ccc(C(C)C)cc2s1)NC(=O)C(C)C [Example 50, (S)—N-((2S,3S)-1-amino-3-methylpentan-2-yl)-2-isobutyramido-3-(6-isopropylbenzo[d]thiazol-2-yl)propanamide] — within 1.5-fold, 0.255 ± 0.029 µM
- CCCC(=O)N[C@@H](Cc1nc2ccc(C(C)C)cc2s1)C(=O)N[C@H](CN)[C@@H](C)CC [Example 51, N—((S)-1-(((2S,3 S)-1-amino-3-methylpentan-2-yl)amino)-3-(6-isopropylbenzo[d]thiazol-2-yl)-1-oxopropan-2-yl)butyramide] — 5.3-fold higher, 0.944 ± 0.176 µM
- CC[C@H](C)[C@@H](CN)NC(=O)[C@H](Cc1nc2ccc(C(C)C)cc2s1)NC(=O)NC [Example 52, (S)—N-((2S,3S)-1-amino-3-methylpentan-2-yl)-3-(6-isopropylbenzo[d]thiazol-2-yl)-2-(3-methylureido)propanamide] — 3.1-fold higher, 0.558 ± 0.125 µM
- CCC(=O)N[C@@H](Cc1nc2ccc(C(C)C)cc2s1)C(=O)N[C@H](CN)C1CCCCC1 [Example 56, (S)—N—((S)-2-amino-1-cyclohexylethyl)-3-(6-isopropylbenzo[d]thiazol-2-yl)-2-propionamidopropanamide] — 2.2-fold lower, 0.0796 µM
- CCC(=O)N[C@@H](Cc1nc2ccc(C(C)C)cc2s1)C(=O)N[C@H](CNC(=O)CN1CCOCC1)C1CCCCC1 [Example 57, (S)—N—((S)-1-cyclohexyl-2-(2-morpholinoacetamido)ethyl)-3-(6-isopropylbenzo[d]thiazol-2-yl)-2-propionamidopropanamide] — 2.5-fold lower, 0.0704 µM
- CCC(=O)N[C@@H](Cc1nc2ccc(C(C)C)cc2s1)C(=O)N[C@H](CNC(=O)CCCN1CCOCC1)C1CCCCC1 [Example 59, N—((S)-2-cyclohexyl-2-((S)-3-(6-isopropylbenzo[d]thiazol-2-yl)-2-propionamidopropanamido)ethyl)-4-morpholinobutanamide] — 2.8-fold lower, 0.0631 µM
- CCC(=O)N[C@@H](Cc1nc2ccc(C(C)C)cc2s1)C(=O)N[C@H](CNC(=O)c1ccncc1)C1CCCCC1 [Example 61] — within 1.5-fold, 0.128 µM
- CCC(=O)N[C@@H](Cc1nc2ccc(C(C)C)cc2s1)C(=O)N[C@H](CNC(=O)C1CCNCC1)C1CCCCC1 [Example 62, N—((S)-2-cyclohexyl-2-((S)-3-(6-isopropylbenzo[d]thiazol-2-yl)-2-propionamidopropanamido)ethyl)piperidine-4-carboxamide] — 6.9-fold lower, 0.0259 µM
- CCC(=O)N[C@@H](Cc1nc2ccc(C(C)C)cc2s1)C(=O)N[C@H](CNC(=O)C1CCN(C2COC2)CC1)C1CCCCC1 [Example 63] — 2.7-fold lower, 0.0673 µM
- CCC(=O)N[C@@H](Cc1nc2ccc(C(C)C)cc2s1)C(=O)N[C@H](CNC(=O)C12CCN(CC1)CC2)C1CCCCC1 [Example 64] — 5-fold lower, 0.036 µM
- CCC(=O)N[C@@H](Cc1nc2ccc(C(C)C)cc2s1)C(=O)N[C@H](CNC(=O)c1nnc[nH]1)C1CCCCC1 [Example 65] — 1.5-fold lower, 0.119 µM
- CCC(=O)N[C@@H](Cc1nc2ccc(C(C)C)cc2s1)C(=O)N[C@H](CNC(=O)c1cn(C)cn1)C1CCCCC1 [Example 66] — 1.7-fold higher, 0.299 µM
- CCC(=O)N[C@@H](Cc1nc2ccc(C(C)C)cc2s1)C(=O)N[C@H](CNC(=O)c1c[nH]cn1)C1CCCCC1 [Example 67] — within 1.5-fold, 0.257 µM
- CCC(=O)N[C@@H](Cc1nc2ccc(C(C)C)cc2s1)C(=O)N[C@H](CNC(=O)C1CNC1)C1CCCCC1 [Example 68] — 2.7-fold lower, 0.0666 µM
- CCC(=O)N[C@@H](Cc1nc2ccc(C(C)C)cc2s1)C(=O)N[C@H](CNC(=O)C1CN(C)C1)C1CCCCC1 [Example 69] — 2.5-fold lower, 0.0716 µM
- CCC(=O)N[C@@H](Cc1nc2ccc(C(C)C)cc2s1)C(=O)N[C@H](CNC(=O)C1CCN(CC)CC1)C1CCCCC1 [Example 70] — 4-fold lower, 0.0451 µM
- CCC(=O)N[C@@H](Cc1nc2ccc(C(C)C)cc2s1)C(=O)N[C@H](CNC(=O)C1CCN(C(C)C)CC1)C1CCCCC1 [Example 71] — 1.6-fold lower, 0.11 µM
- CCC(=O)N[C@@H](Cc1nc2ccc(C(C)C)cc2s1)C(=O)N[C@H](CNC(=O)C1CCN(CCO)CC1)C1CCCCC1 [Example 72] — 2.7-fold lower, 0.0659 µM
- CCC(=O)N[C@@H](Cc1nc2ccc(C(C)C)cc2s1)C(=O)N[C@H](CNC(=O)C1CCN(CCF)CC1)C1CCCCC1 [Example 74] — 1.6-fold lower, 0.112 µM
- CCC(=O)N[C@@H](Cc1nc2ccc(C(C)C)cc2s1)C(=O)N[C@H](CNC(=O)NC1CCN(C)CC1)C1CCCCC1 [Example 75] — 2.4-fold lower, 0.0756 µM
- CCC(=O)N[C@@H](Cc1nc2ccc(C(C)C)cc2s1)C(=O)N[C@H](CNS(=O)(=O)C1CCN(C)CC1)C1CCCCC1 [Example 76] — 2.7-fold lower, 0.0657 µM
- CCC(=O)N[C@@H](Cc1nc2ccc(C(C)C)cc2s1)C(=O)N[C@H](CNc1ccncn1)C1CCCCC1 [Example 78] — within 1.5-fold, 0.189 µM
- CCC(=O)N[C@@H](Cc1nc2ccc(C(C)C)cc2s1)C(=O)N[C@H](CN(C)C)C1CCCCC1 [Example 79, (S)—N—((S)-1-cyclohexyl-2-(dimethylamino)ethyl)-3-(6-isopropylbenzo[d]thiazol-2-yl)-2-propionamidopropanamide] — 1.9-fold lower, 0.0936 µM
- CCC(=O)N[C@@H](Cc1nc2ccc(C(C)C)cc2s1)C(=O)N[C@H](CN1CCOCC1)C1CCCCC1 [Example 80, (S)—N—((S)-1-cyclohexyl-2-morpholinoethyl)-3-(6-isopropylbenzo[d]thiazol-2-yl)-2-propionamidopropanamide] — within 1.5-fold, 0.157 µM
- CCC(=O)N[C@@H](Cc1nc2ccc(C(C)C)cc2s1)C(=O)N[C@H](CO)C1CCCCC1 [Example 81, (S)—N—((S)-1-cyclohexyl-2-hydroxyethyl)-3-(6-isopropylbenzo[d]thiazol-2-yl)-2-propionamidopropanamide] — within 1.5-fold, 0.127 µM
- CCC(=O)N[C@@H](Cc1nc2ccc(C(C)C)cc2s1)C(=O)N[C@H](Cn1cc(CN)nn1)C1CCCCC1 [Example 82] — within 1.5-fold, 0.243 µM
- CCC(=O)N[C@@H](Cc1nc2ccc(C(C)C)cc2s1)C(=O)N[C@H](Cn1cc(CO)nn1)C1CCCCC1 [Example 83] — 3.7-fold higher, 0.656 µM
- CCC(=O)N[C@@H](Cc1nc2ccc(C(C)C)cc2s1)C(=O)NC(CSc1nncn1C)C1CCCCC1 (stereo partly drawn) [Example 84] — within 1.5-fold, 0.242 µM
- CCC(=O)N[C@@H](Cc1nc2ccc(C(C)C)cc2s1)C(=O)N[C@H](COCCN1CCOCC1)C1CCCCC1 [Example 85] — within 1.5-fold, 0.138 µM
- CCC(=O)N[C@@H](Cc1nc2ccc(Cl)cc2s1)C(=O)N[C@H](CN)Cc1ccccc1 [Example 86] — 2.7-fold higher, 0.491 µM
- CCC(=O)N[C@@H](Cc1nc2ccc(Cl)cc2s1)C(=O)N[C@H](CNC(=O)CCN1CCOCC1)Cc1ccccc1 [Example 92] — within 1.5-fold, 0.244 µM
- CCC(=O)N[C@@H](Cc1nc2ccc(C(C)C)cc2s1)C(=O)N[C@H](CNC(=O)CCN1CCOCC1)Cc1ccccc1 [Example 93] — 2-fold lower, 0.0899 µM
